Assay results taken from patent US5942405A, “Therapeutic and screening methods using C3a receptor and C3a” (priority 1997, dated 1999).
“Also recorded” adds a separate entry of the source.

B1: rC5a: Human rC5a was expressed in E. coli and purified to homogeneity (protein, UniProt P01031 678-751, looked up)
C5a anaphylatoxin: TLQKKIEEIAAKYKHSVVKKCCYDGACVNNDETCEQRAARISLGPRCIKAFTECCVVASQLRANISHKDMQLGR
modifications: C5a anaphylatoxin recombinant, E. coli
notes: Human rC5a was expressed in E. coli and purified to homogeneity

Tests used:
C5a-R [1] = test: Calcium mobilization by Fura 2 loaded RBL-2H3 cells stably expressing C5a-R; format: cell-based, human; conditions: RBL-2H3 cells expressing C5a-R, Fig. 4: rC5a 10 nM, C3a analogue peptide 1 uM
Method: (§1) (A) Electrophysiological response of Xenopus oocytes injected with cRNA for C3a Receptor (10 ng), total U937 RNA (25 ng), or a mixture of C3a Receptor (10 ng) and U937 RNA (25 ng) to 10 nM rC5a, 10 nM C3a analogue peptide, 10 nM platelet activating factor (PAF), 10 nM fMetLeuPhe. Inset, represents typical response of oocytes co-injected with C3a Receptor cRNA+U937 RNA to 10 nM C3a. (B) Electrophysiological response of oocytes injected with C5a-R cRNA (10 ng), U937 RNA (25 ng) or a mixture of C5a-R and U937 RNA, to 10 nM rC5a or 10 nM C3a analogue peptide. […] Calcium mobilization by Fura 2 loaded cells expressing C5a receptor (FIGS. 4A & 4C) or C3a Receptor (FIGS. 4B & 4D) in response to rC5a (10 nM, FIG. 4A or 100 nM, FIG. 4B) or C3a analogue peptide (1 uM, FIGS. 4C & 4D).
To prepare C3a Receptor for expression in mammalian cells, a 1.6 kb cDNA fragment was obtained by PCR amplification that encompassed the entire C3a Receptor open reading frame. This fragment was subcloned into KpnI/Hind III sites of the mammalian expression vector, pCDN (Aiyar, N., et al (1994) Mol. Cell. Bio. 131, 75-86). Oligonucleotide primers used for PCR amplification were 5'-GA AGT GGT ACC ATG GCG TC-3' (SEQ ID NO:4) and 5'-GC TCCAAGCTTTCACACAGTTG-3' (SEQ ID NO:5) (the translation start and stop codons are underlined). RBL-2H3 cells were electroporated with either C3a Receptor or C5a-R in the pCDN mamalian expression vector (Aiyar, N., et al (1994) Mol. Cell. Bio. 131, 75-86), exactly as described (DeMartino, J. A., et al (1994) J. Biol Chem. 269, 14446-14450). Individual G418 resistant (400 μg/ml) colonies were isolated and expanded. Clonal cell lines expressing either C3a Receptor or C5a-R were chosen for further functional and binding studies.
RBL-2H3 cells (Siraganian, R. P., et al (1982) Fed. Proc. 41, 30-34), a rat basophil cell line, when transfected with an expression plasmid encoding the C5a-R express receptors that are functionally active (DeMartino, J. A., et al (1994) J. Biol. Chem. 269, 14446-14450). RBL-2H3 cells were stably transfected with mammalian expression plasmids encoding the C5a-R or C3a Receptor and Fura 2 loaded cells were tested for a C5a or C3a induced mobilization of intracellular Ca^2+.
Fura 2 loaded clonal cell lines expressing C5a-R or C3a Receptor were assayed for functional response, Ca^2+ mobilization, as described (Saussy, D. L. Jr., et al (1989) J. Biol. Chem. 264, 19845-19855).

C5a-R [2] = test: Electrophysiological response (Ca2+ mediated chloride currents, two electrode voltage clamp) of Xenopus oocytes injected with C5a-R cRNA; format: cell-based, human; conditions: oocytes co-injected with C5a-R cRNA (10 ng) and U937 RNA (25 ng), ligands 10 nM
Method: as §1
Commercially prepared (Clontech, Palo Alto, Calif.) multiple tissue blots containing approximately 2 μg poly-A mRNA per lane were sequentially hybridized with random primer ^32 P-labeled cDNAs spanning the coding regions of C5a-R and C3a Receptor. C5a-R was cloned via PCR from differentiated U937 RNA. Final washing step was carried out twice in 0.5× SSC, 1% SDS at 65° C. for 20 min.
Capped cRNA transcripts were generated from linearized C3a Receptor and C5a-R plasmid DNA as previously described (Kumar, C. S., et al (1989) J. Biol. Chem. 264, 17939-17946) and suspended in sterile water at a concentration of 0.2 μg/μl. […] Results represent average response determined in three separate experiments.
The chemotactic receptors for C5a and the fMLP-R have previously been functionally expressed in Xenopus laevis oocytes (Kroll, B., et al (1991) FEBS Lett. 291, 208-210; Murphy, P. M. & McDermott, D. (1991) J Biol. Chem. 266, 12560-12567; Murphy, P. M., Gallin, E. K., and Tiffany, H. L. (1990) J Immunol. 145, 2227-2234; Schultz, P., et al (1992) Cellular Signalling 4, 153-161) and, unlike all other GPCRs tested in this system, injection of cRNA for the cloned chemotactic receptors alone is insufficient to stimulate signal transduction in response to ligand binding (Kroll, B., et al (1991) FEBS Lett. 291, 208-210; Murphy, P. M. & McDermott, D. (1991) J Biol. Chem. 266, 12560-12567). Functional expression of both of these chemotactic receptors, as monitored by induction of Ca^2+ mediated chloride currents, requires the co-injection of a complimentary human factor which can be supplied by total RNA from myeloid or liver cells (Kroll, B., et al (1991) FEBS Lett. 291, 208-210; Murphy, P. M. & McDermott, D. (1991) J Biol. Chem. 266, 12560-12567). […]

| Molecule | mobilization of intracellular Ca2+ (response in words) (C5a-R [1]) | mobilization of intracellular Ca2+ (response in words) (C5a-R [1]; listed as native human C3a) | electrophysiological response of oocytes expressing C5a-R (C5a-R [2]) | electrophysiological response of oocytes expressing C5a-R (C5a-R [2]; listed as native ligand) | electrophysiological response of oocytes expressing C5a-R (C5a-R [2]; listed as C5a) |
| --- | --- | --- | --- | --- | --- |
| C3a: C3a was purchased from Advanced Research Technologies, San Diego; anaphylatoxin; radioiodinated for binding | not C5a receptor bind and respond | not C5a-R expressing RBL-2H3 cells also responded | smaller response; also recorded: respond | elicited similar responses | – |
| WWGKKYRASKLGLAR [C3a analogue synthetic peptide, reference compound] | no response | – | – | – | – |
| B1 | responded | – | induced rapid activation of chloride currents | – | respond |
